Converted amounts (≈) assume the structure as drawn.
Assays:
Type in all cases: functional
Bacillus subtilis [1] = experiment: Antibacterial activity against Bacillus subtilis MTCC 441 at 1000 ug/ml after 48 hr by cup-plate method; details: MTCC 441, 48 h, read-out: DIZ
Bacillus subtilis [2] = experiment: Antibacterial activity against Bacillus subtilis MTCC 441 at 750 ug/ml after 48 hr by cup-plate method; details: MTCC 441, 48 h, read-out: DIZ
Bacillus subtilis [3] = experiment: Antibacterial activity against Bacillus subtilis MTCC 441 at 250 ug/ml after 48 hr by cup-plate method; details: MTCC 441, 48 h, read-out: DIZ
Bacillus subtilis [4] = experiment: Antibacterial activity against Bacillus subtilis MTCC 441 at 100 ug/ml after 48 hr by cup-plate method; details: MTCC 441, 48 h, read-out: DIZ
Pseudomonas fluorescens [5] = experiment: Antibacterial activity against Pseudomonas fluorescens MTCC 2421 after 24 to 48 hr by tube dilution method
Pseudomonas fluorescens [6] = experiment: Antibacterial activity against Pseudomonas fluorescens MTCC 2421 at 500 ug/ml after 48 hr by cup-plate method; details: MTCC 2421, 48 h, read-out: DIZ
Escherichia coli [7] = experiment: Antibacterial activity against Escherichia coli MTCC 1573 at 500 ug/ml after 48 hr by cup-plate method; details: MTCC 1573, 48 h, read-out: DIZ
Micrococcus luteus = experiment: Antibacterial activity against Micrococcus luteus MTCC 1538 at 100 ug/ml after 48 hr by cup-plate method; details: MTCC 1538, 48 h, read-out: DIZ
Staphylococcus aureus [8] = experiment: Antibacterial activity against Staphylococcus aureus MTCC 1430 at 1250 ug/ml after 48 hr by cup-plate method; details: MTCC 1430, 48 h, read-out: DIZ
Staphylococcus aureus [9] = experiment: Antibacterial activity against Staphylococcus aureus MTCC 1430 at 1000 ug/ml after 48 hr by cup-plate method; details: MTCC 1430, 48 h, read-out: DIZ
Staphylococcus aureus [10] = experiment: Antibacterial activity against Staphylococcus aureus MTCC 1430 at 250 ug/ml after 48 hr by cup-plate method; details: MTCC 1430, 48 h, read-out: DIZ
Staphylococcus aureus [11] = experiment: Antibacterial activity against Staphylococcus aureus MTCC 1430 at 100 ug/ml after 48 hr by cup-plate method; details: MTCC 1430, 48 h, read-out: DIZ
Pseudomonas aeruginosa [12] = experiment: Antibacterial activity against Pseudomonas aeruginosa MTCC 424 at 1250 ug/ml after 48 hr by cup-plate method; details: MTCC 424, 48 h, read-out: DIZ
Pseudomonas aeruginosa [13] = experiment: Antibacterial activity against Pseudomonas aeruginosa MTCC 424 at 1000 ug/ml after 48 hr by cup-plate method; details: MTCC 424, 48 h, read-out: DIZ
Pseudomonas aeruginosa [14] = experiment: Antibacterial activity against Pseudomonas aeruginosa MTCC 424 at 250 ug/ml after 48 hr by cup-plate method; details: MTCC 424, 48 h, read-out: DIZ
Pseudomonas aeruginosa [15] = experiment: Antibacterial activity against Pseudomonas aeruginosa MTCC 424 at 100 ug/ml after 48 hr by cup-plate method; details: MTCC 424, 48 h, read-out: DIZ
Escherichia coli [16] = experiment: Antibacterial activity against Escherichia coli MTCC 1573 at 100 ug/ml after 48 hr by cup-plate method; details: MTCC 1573, 48 h, read-out: DIZ

## O=[N+]([O-])c1ccc(C2CC(c3cccc4ccccc34)=NN2)cc1 (stereo unspecified)
Bacillus subtilis [1]
  zone of inhibition at 1000 µg/mL: 16 mm
Bacillus subtilis [2]
  zone of inhibition at 750 µg/mL: 15 mm
Bacillus subtilis [3]
  zone of inhibition at 250 µg/mL: 12 mm
Bacillus subtilis [4]
  zone of inhibition at 100 µg/mL: 10 mm
Pseudomonas fluorescens [5]
  MIC: 150 µg/mL (≈ 473 µM)
Pseudomonas fluorescens [6]
  zone of inhibition at 500 µg/mL: 11 mm
Escherichia coli [7]
  zone of inhibition at 500 µg/mL: 11 mm
Micrococcus luteus
  zone of inhibition at 100 µg/mL: 9 mm
Staphylococcus aureus [8]
  zone of inhibition at 1250 µg/mL: 16 mm
Staphylococcus aureus [9]
  zone of inhibition at 1000 µg/mL: 14 mm
Staphylococcus aureus [10]
  zone of inhibition at 250 µg/mL: 10 mm
Staphylococcus aureus [11]
  zone of inhibition at 100 µg/mL: 9 mm
Pseudomonas aeruginosa [12]
  zone of inhibition at 1250 µg/mL: 15 mm
Pseudomonas aeruginosa [13]
  zone of inhibition at 1000 µg/mL: 13 mm
Pseudomonas aeruginosa [14]
  zone of inhibition at 250 µg/mL: 10 mm
Pseudomonas aeruginosa [15]
  zone of inhibition at 100 µg/mL: 9 mm

## O=[N+]([O-])c1ccc(C2CC(c3cccc4ccccc34)=NN2c2ccccc2)cc1 (stereo unspecified)
Bacillus subtilis [1]
  zone of inhibition at 1000 µg/mL: 19 mm
Bacillus subtilis [2]
  zone of inhibition at 750 µg/mL: 17 mm
Bacillus subtilis [3]
  zone of inhibition at 250 µg/mL: 14 mm
Bacillus subtilis [4]
  zone of inhibition at 100 µg/mL: 12 mm
Pseudomonas fluorescens [5]
  MIC: 30 µg/mL (≈ 76.2 µM)
Pseudomonas fluorescens [6]
  zone of inhibition at 500 µg/mL: 10 mm
Escherichia coli [7]
  zone of inhibition at 500 µg/mL: 11 mm
Escherichia coli [16]
  zone of inhibition at 100 µg/mL: 9 mm
Staphylococcus aureus [8]
  zone of inhibition at 1250 µg/mL: 18 mm
Staphylococcus aureus [9]
  zone of inhibition at 1000 µg/mL: 15 mm
Staphylococcus aureus [10]
  zone of inhibition at 250 µg/mL: 10 mm
Pseudomonas aeruginosa [12]
  zone of inhibition at 1250 µg/mL: 20 mm
Pseudomonas aeruginosa [13]
  zone of inhibition at 1000 µg/mL: 17 mm
Pseudomonas aeruginosa [14]
  zone of inhibition at 250 µg/mL: 10 mm
Pseudomonas aeruginosa [15]
  zone of inhibition at 100 µg/mL: 9 mm

## O=[N+]([O-])c1ccc(C2CC(c3cccc4ccccc34)=NN2c2ccc([N+](=O)[O-])cc2)cc1 (stereo unspecified)
Bacillus subtilis [1]
  zone of inhibition at 1000 µg/mL: 17 mm
Bacillus subtilis [2]
  zone of inhibition at 750 µg/mL: 15 mm
Bacillus subtilis [3]
  zone of inhibition at 250 µg/mL: 12 mm
Bacillus subtilis [4]
  zone of inhibition at 100 µg/mL: 11 mm
Pseudomonas fluorescens [5]
  MIC: 30 µg/mL (≈ 68.4 µM)
Pseudomonas fluorescens [6]
  zone of inhibition at 500 µg/mL: 11 mm
Escherichia coli [7]
  zone of inhibition at 500 µg/mL: 12 mm
Escherichia coli [16]
  zone of inhibition at 100 µg/mL: 10 mm
Staphylococcus aureus [8]
  zone of inhibition at 1250 µg/mL: 13 mm
Staphylococcus aureus [9]
  zone of inhibition at 1000 µg/mL: 12 mm
Staphylococcus aureus [10]
  zone of inhibition at 250 µg/mL: 9 mm
Pseudomonas aeruginosa [12]
  zone of inhibition at 1250 µg/mL: 19 mm
Pseudomonas aeruginosa [13]
  zone of inhibition at 1000 µg/mL: 16 mm
Pseudomonas aeruginosa [14]
  zone of inhibition at 250 µg/mL: 10 mm
Pseudomonas aeruginosa [15]
  zone of inhibition at 100 µg/mL: 9 mm

## NC(=S)N1N=C(c2cccc3ccccc23)CC1c1ccc([N+](=O)[O-])cc1 (stereo unspecified)
Bacillus subtilis [1]
  zone of inhibition at 1000 µg/mL: 19 mm
Bacillus subtilis [2]
  zone of inhibition at 750 µg/mL: 16 mm
Bacillus subtilis [3]
  zone of inhibition at 250 µg/mL: 11 mm
Bacillus subtilis [4]
  zone of inhibition at 100 µg/mL: 9 mm
Pseudomonas fluorescens [5]
  MIC: 30 µg/mL (≈ 79.7 µM)
Pseudomonas fluorescens [6]
  zone of inhibition at 500 µg/mL: 18 mm
Escherichia coli [7]
  zone of inhibition at 500 µg/mL: 11 mm
Escherichia coli [16]
  zone of inhibition at 100 µg/mL: 8 mm
Staphylococcus aureus [8]
  zone of inhibition at 1250 µg/mL: 14 mm
Staphylococcus aureus [9]
  zone of inhibition at 1000 µg/mL: 12 mm
Staphylococcus aureus [10]
  zone of inhibition at 250 µg/mL: 9 mm
Pseudomonas aeruginosa [12]
  zone of inhibition at 1250 µg/mL: 22 mm
Pseudomonas aeruginosa [13]
  zone of inhibition at 1000 µg/mL: 19 mm
Pseudomonas aeruginosa [14]
  zone of inhibition at 250 µg/mL: 11 mm
Pseudomonas aeruginosa [15]
  zone of inhibition at 100 µg/mL: 10 mm

## O=[N+]([O-])c1ccc(C2CC(c3cccc4ccccc34)=NN2c2ccccc2[N+](=O)[O-])cc1 (stereo unspecified)
Bacillus subtilis [1]
  zone of inhibition at 1000 µg/mL: 16 mm
Bacillus subtilis [2]
  zone of inhibition at 750 µg/mL: 15 mm
Bacillus subtilis [3]
  zone of inhibition at 250 µg/mL: 13 mm
Bacillus subtilis [4]
  zone of inhibition at 100 µg/mL: 12 mm
Pseudomonas fluorescens [5]
  MIC: 30 µg/mL (≈ 68.4 µM)
Pseudomonas fluorescens [6]
  zone of inhibition at 500 µg/mL: 13 mm
Escherichia coli [7]
  zone of inhibition at 500 µg/mL: 11 mm
Escherichia coli [16]
  zone of inhibition at 100 µg/mL: 9 mm
Staphylococcus aureus [8]
  zone of inhibition at 1250 µg/mL: 15 mm
Staphylococcus aureus [9]
  zone of inhibition at 1000 µg/mL: 13 mm
Staphylococcus aureus [10]
  zone of inhibition at 250 µg/mL: 9 mm
Pseudomonas aeruginosa [12]
  zone of inhibition at 1250 µg/mL: 18 mm
Pseudomonas aeruginosa [13]
  zone of inhibition at 1000 µg/mL: 17 mm
Pseudomonas aeruginosa [14]
  zone of inhibition at 250 µg/mL: 14 mm
Pseudomonas aeruginosa [15]
  zone of inhibition at 100 µg/mL: 13 mm
